Test results taken from patent US4035486A, “Medicament” (Centre d'Etudes Experimentales et Clinques de Physio …, priority 1974, dated 1977).

Key:
[1] = tested on: sections of the cerebral cortex of a rat stimulated by KCl; assay: Action in vitro on consumption of oxygen, accumulation of lactic acid and consumption of glucose in rat cerebral cortex sections stimulated by KCl (Warburg technique, enzymatic determination); type: cell-based; settings: for Accumulation of lactic acid / Consumption of glucose / Consumption of oxygen: rat cerebral cortex sections stimulated by KCl, 1 hour at 37°, ACh 2.7.10^-10 M, insulin 66.10^-4 U/I
Source text: 1. The investigation, on sections of a rat's brain which have been stimulated by KCl, of the variations in the consumption of oxygen, the production of lactic acid and the consumption of glucose, by WARBURG's conventional technique, after which these sections are subjected to the action of guanosine, ACh or insulin or guanosine in association with ACh or insulin. I. Action in vitro of guanosine, alone or in association with acetylcholine or insulin, on the consumption of oxygen, the accumulation of lactic acid and the consumption of glucose in sections of the cerebral cortex of a rat which have been stimulated by KCl. The animals which are used are male Wistar Vag rats with an average weight of 225/250 grammes, and they have been subjected to standard laboratory regime. The sections of tissue, which weigh between 15 and 20 mg, were taken from the cerebral cortex of the rat and allowed to incubate for 1 hour at 37° after being placed in a flask containing the Krebs-Ringer phosphate buffer having a KCl concentration of 10 percent. The substrate comprises 15 μ moles of glucose. The guanosine, […], is added to the flask simultaneously with the glucose and the buffer, whereas the acetylcholine 2.7.10^^-10 M and the insulin (Endopancrine) 66.10^-^4 μ/liter are placed in the lateral paunch and put into contact with the section of tissue at a time 0. The total volume of the mixture is 3 mls. The consumption of oxygen is measured according to Warburg's conventional method after a 1-hour period of incubation at 37°. It is expressed in μ moles of oxygen per hour and per gramme of tissue. The lactic acid and glucose are determined in the deproteinised incubation medium by an enzymatic method. The results are expressed in μ moles/h/g of tissue.

[2] = tested on: glycogen of the mouse brain; assay: Cerebral glycogen in a mouse after injection of guanosine, insulin or both; type: in vivo; settings: for glycogen of the mouse brain: 30 minutes before killing; for level of cerebral glycogen compared with the controls (in words): mouse, guanosine 100 mg/kg or 200 mg/kg, insulin 0.5 I.U./20 g, or insulin with guanosine 200 mg/kg
Method: 2. The investigation of the content of glycogen in the brain of a mouse under the action of quanosine or insulin or these two agents in association. The animals which are used are male mice with an average weight of 20-25 g. Five groups of animals were studied which had received respectively: 1st group: a isotonic salt solution by intraperitoneal injection. 2nd group: a dose of 100 mg/kg of guanosine by intraperitoneal injection. 3rd group: a dose of 200 mg/kg of guanosine by intraperitoneal injection. 4th group: a dose of 0.5 μI/20 g per mouse of insulin by subcutaneous injection. For these four groups the injection was made 30 minutes before the animals were killed. 5th group: an intraperitoneal injection of guanosine at a dose of 200 mg/kg 30 minutes before a sub-cutaneous injection of insulin at a dose of 0.5 μI/20 g per mouse. The animal is killed 30 minutes after the second injection by being totally immersed in liquid nitrogen. The brains are removed whilst they are still deep-frozen. The isolated glycogen is hydrolyzed by the enzyme amylo-α-1,4 -α-1,6 glucosidase which releases the glucose by hydrolysis of the α-(1 → 6) and α-(→ 4) bonds. The glucose is then converted, in a single stage, to 6-phosphogluconate by the enzymes : hexokinase and glucose-6-phosphate dehydrogenase. The formation of the nicotinamide adenine dinucleotide phosphate is then measured florometrically (NAHORSKI and ROGERS, Analyt. Biochem. 1972, 49, 492-497).

glycemia = assay: Action of guanosine upon glycemia in the rabbit after intravenous injection; type: in vivo; settings: insulin 0.5 I.U. per kg alone or with guanosine 100 mg per kg, followed to 240 min
Method: 3. The study of the variations in glycemia in a rabbit after an injection of either insulin or insulin in association with guanosine.
The animals which are used are male rabbits with a weight of 2.200 kg to 2.500 kg.
Four groups of animals were studied which had received by intravenous injection, respectively, in a volume of 10 ml:
1st group: an isotonic solution of sodium chloride.
2nd group: guanosine at the rate of 100 mg per kg of rabbit.
3rd group: insulin at the rate of 0.5 I.U. per kg of rabbit.
4th group: guanosine at the rate of 100 mg per kg of rabbit and insulin at the rate of 0.5 I.U. per kg of rabbit.
A catheter is inserted into the femoral artery, its distal end being joined to the skin in the caudal region, such that the blood may be removed without harming the rabbit.
The drugs were injected via a vein in the ear. The guanosine was dissolved in an isotonic sodium chloride solution to which 1.5% NaOH was added until the guanosine has been dissolved. The pH of the final solution was 9.
After the inspection the rabbits were given 30 minutes rest.
Arterial blood was removed on six occasions at the times t = 0 min; t = 15 min; t = 30 min; t = 60 min; t = 120 min; t = 240 min.
The glycemia values were determined by the enzymatic method of BOEHRINGER.

| Compound | increase in the consumption of oxygen ([1]; acetylcholine 2.7.10^-10 M, alone or with guanosine, rat cerebral cortex sections) | Accumulation of lactic acid ([1]; guanosine 1.66.10^-4 M) | Consumption of glucose ([1]; guanosine 1.66.10^-4 M) | Consumption of oxygen ([1]; guanosine 1.66.10^-4 M) | effect upon the accumulation of lactic acid (in words) ([1]; rat cerebral cortex sections, guanosine 1.66.10^-4 M) | effect upon the consumption of glucose (in words) ([1]; rat cerebral cortex sections, guanosine 1.66.10^-4 M, acetylcholine 2.7.10^-10 M) | effect upon the consumption of oxygen (in words) ([1]; rat cerebral cortex sections, guanosine 1.66.10^-4 M, acetylcholine 2.7.10^-10 M, insulin 66.10^-4 μ/liter) | glycogen of the mouse brain ([2]; guanosine 100 mg/kg intraperitoneal) | glycogen of the mouse brain ([2]; guanosine 200 mg/kg intraperitoneal) | level of cerebral glycogen compared with the controls (in words) [2] | increase in the consumption of glucose ([1]; insulin 66.10^-4 μ/liter, alone or with guanosine, rat cerebral cortex sections) | glycogen of the mouse brain ([2]; insulin 0.5 I.U./20 g mouse subcutaneous) | return of the glycemia to its original level (in words) (glycemia) |
| --- | --- | --- | --- | --- | --- | --- | --- | --- | --- | --- | --- | --- | --- |
| CC(=O)OCC[N+](C)(C)C [ACh, acetylcholine, reference compound] | 25% | 98.8 ± 3.7 µmol/h/g | 146 ± 13.9 µmol/h/g | 134 ± 7.2 µmol/h/g |  |  |  |  |  |  |  |  |  |
| Nc1nc2c(ncn2[C@@H]2O[C@H](CO)[C@@H](O)[C@H]2O)c(=O)[nH]1 [Guanosine, guanosine] |  | 88.2 ± 5.4 µmol/h/g | 99.3 ± 9.1 µmol/h/g | 93 ± 6 µmol/h/g | has no effect | has no effect | has no effect | 151 ± 7 μ g of glucose equivalents per | 159 ± 8 μ g of glucose equivalents per | do not show any significant differences |  |  |  |
| insulin |  | 84.6 ± 5 µmol/h/g | 168 ± 17 µmol/h/g | 91.6 ± 5.3 µmol/h/g |  |  |  |  |  | very much higher than that of the controls | 50% | 182 ± 10 μ g of glucose equivalents per | quickly returns to its original level |
